Measurements taken from publication PMC8194506 (Antiviral research, 2020).
Where two headings read alike, the source gives them in different places.

What was measured:
EBOV [1] = conditions: cited from earlier work
in vitro [2] = conditions: guinea pig, microsomes
[3] = guinea pig, microsomes
[4] = mouse, microsomes
[5] = human, microsomes
in vitro [6] = conditions: mouse, microsomes
[7] = microsomes
in vitro [8] = conditions: human, microsomes
EBOV [9] = conditions: mouse, in vivo; cited from earlier work
Sudan virus = conditions: guinea pig, in vivo, sc; cited from earlier work
[10] = tested on: EBOV (Kikwit, Mayinga and Makona); test: microbe, parasite or virus in culture; format: cell-based, Ebola virus; conditions: Zaire ebolavirus, HeLa, read-out: IC50 range against three strains of EBOV
MARV Musoke strain = format: cell-based, Marburg virus
[11] = tested on: Marburg virus/H.sapiens-tc/AGO/2005/Ang-1379v (MARV/Ang); test: organism not typed; format: cell-based; conditions: HeLa
[12] = tested on: Marburg virus/H.sapiens-tc/KEN/1980/Mt. Elgon-Musoke (MARV/Mus); test: organism not typed; format: cell-based; conditions: HeLa
in vivo = conditions: male, Hartley, guinea pig, ip, 125 mg/kg
in vitro [13] = conditions: human
[14] = tested on: VSV pseudotyped with EBOV glycoprotein; format: cell-based
[15] = both, Hartley, guinea pig, in vivo
[16] = human, in vivo; cited from earlier work
MARV (Musoke and Angola) = test: organism not typed; format: cell-based, Marburg virus; conditions: HeLa, read-out: IC50 range against two strains of MARV
[17] = male, Hartley, guinea pig, in vivo
[18] = pH 7.4
EBOV [19] = conditions: in vivo, iv; cited from earlier work
EBOV [20] = conditions: human, in vivo; cited from earlier work

Row | Molecule | activity in the guinea pig in vivo model (EBOV [1]) | half-life (in vitro [2]) [h] | Clint [3] [µL·min/mg] | Clint [4] [µL·min/mg] | Clint [5] [µL·min/mg] | half-life (in vitro [6]) [h] | Clint [7] [µL·min/mg] | half-life (in vitro [8]) [h] | further results
1 | 17-DMAG | inactive | – | – | – | – | – | – | – | –
2 | Nc1nc(Nc2ccc3c(c2)CC[C@@H](N2CCCC2)CC3)nn1-c1cc2c(nn1)-c1ccccc1CCC2 [BGB324] | inactive | – | – | – | – | – | – | – | –
3 | CCN(CC)CCCC(C)Nc1ccnc2cc(Cl)ccc12 (centres unmarked) [Chloroquine] | inactive | 2.21 | 10.5 | 29.3 | 6.9 | 0.788 | 13.0 | 3.36 | –
4 | NC(=O)c1nc(F)c[nH]c1=O [Favipiravir] | – | – | – | – | – | – | – | – | protection (EBOV [9]): 83%; survival rates (Sudan virus): 83–100%
5 | COc1ccc2nc3cc(Cl)ccc3c(Nc3cc(CN4CCCC4)c(O)c(CN4CCCC4)c3)c2n1 [Pyronaridine, 4-[(7-Chloro-2-methoxybenzo[b][1,5]naphthyridin-10-yl)amino]-2,6-bis(1-pyrrolidinylmethyl)phenol phosphate (1:4)] | – | 1.1 | 21.0 | <7.4 | 11.4 | > 3.1 | 15.5 | 2.04 | IC50 [10]: 0.82 to 1.3 µM; Activity against MARV Musoke strain (MARV Musoke strain): active; IC50 [11]: 2.72 ± 0.97 µM; IC50 [12]: 1.01 ± 0.11 µM; AUC(0-inf) (in vivo): 17400 ng·h/mL; AUC(0-t) (in vivo): 16600 ng·h/mL; Cmax (in vivo): 523 ng/mL; half-life (in vivo; T1/2): 72.7 h; CC50 (in vitro [13]): 4.11 ± 0.5 µM; Effect on entry stage of infection in pseudotype assay [14]: block the entry stage of infection; guinea pigs found dead within 30 mins post injection [15]: 4 of 6; guinea pigs having any abnormal clinical observations [15]: 1 of 6; t1/2 [16]: 195 to 251 h; IC50 (MARV (Musoke and Angola)): 1.01 to 2.72 µM; Guinea pigs found dead on days 14 and 17 post dose [17]: 2 of 3; T1/2 ([17]; po, 600 mg/kg): 90.5 h
6 | CCN(CC)CCCC(C)Nc1c2ccc(Cl)cc2nc2ccc(OC)cc12 (centres unmarked) [Quinacrine] | – | 0.285 | 81.3 | 110.0 | 50.5 | 0.21 | 137.4 | 0.458 | O-demethylation, higher in guinea pig [18]: 2–3 times; Activity against MARV Musoke strain (MARV Musoke strain): active; IC50 [11]: 2.94 ± 0.76 µM; IC50 [12]: 1.57 ± 0.17 µM; CC50 (in vitro [13]): 8.62 ± 0.02 µM; Effect on entry stage of infection in pseudotype assay [14]: block the entry stage of infection
7 | CCN(CC)CCOc1ccc2c(c1)C(=O)c1cc(OCCN(CC)CC)ccc1-2 [Tilorone] | – | 0.203 | 113.7 | 13.5 | 10.9 | 1.71 | 14.7 | 2.12 | Activity against MARV Musoke strain (MARV Musoke strain): active; IC50 [11]: 4.51 ± 1.93 µM; IC50 [12]: 2.05 ± 0.28 µM; CC50 (in vitro [13]): 18 ± 3.04 µM; Effect on entry stage of infection in pseudotype assay [14]: block the entry stage of infection
8 | CCCCc1oc2ccccc2c1C(=O)c1cc(I)c(OCCN(CC)CC)c(I)c1 [amiodarone] | inactive | – | – | – | – | – | – | – | –
9 | CC[C@H]1OC(=O)[C@H](C)[C@@H](O[C@H]2C[C@@](C)(OC)[C@@H](O)[C@H](C)O2)[C@H](C)[C@@H](O[C@@H]2O[C@H](C)C[C@H](N(C)C)[C@H]2O)[C@](C)(O)C[C@@H](C)CN(C)[C@H](C)[C@@H](O)[C@]1(C)O [azithromycin] | inactive | – | – | – | – | – | – | – | –
10 | CCC(CC)COC(=O)[C@H](C)N[P@](=O)(OC[C@H]1O[C@@](C#N)(c2ccc3c(N)ncnn23)[C@H](O)[C@@H]1O)Oc1ccccc1 [remdesivir] | – | – | – | – | – | – | – | – | survival (EBOV [19]): 100%; overall survival rate (EBOV [20]): 47%
11 | mAb114: a monoclonal antibody (antibody, chains of the INN, looked up, V domains shown) VH: EVQLVESGGGLIQPGGSLRLSCAASGFALRMYDMHWVRQTIDKRLEWVSAVGPSGDTTYADSVKGRFAVSRENAKNSLSLQMNSLTAGDTAIYYCVRSDRGVAGLFDSWGQGILVTVSS VL: DIQMTQSPSSLSASVGDRITITCRASQAFDNYVAWYQQRPGKVPKLLISAASALHAGVPSRFSGSGSGTHFTLTISSLQPEDVATYYCQNYNSAPLTFGGGTKVEIK | – | – | – | – | – | – | – | – | overall survival rate (EBOV [20]): 66%
